Experimental data published in US8188059B2, “Compounds and methods for modulating expression of GCGR” (Isis Pharmaceuticals, Inc., priority 2006, dated 2012).
Strand notation (5' to 3'): a small letter for the sugar, then the base; units joined by * are phosphorothioate-linked, units joined directly phosphodiester-linked; [ ] holds rarer units or linkages, { } end groups; capitals alone tell only the bases. e = 2'-O-(2-methoxyethyl) (MOE); k = constrained ethyl (cEt); [5mC] = 5-methylcytosine; d = 2'-deoxy (DNA)

What was measured:
ApoB mRNA [1] = test: ApoB mRNA in liver of Balb/c mice, BNA short antisense compounds, i.p. twice per week for three weeks (Example 26, Table 89); format: in vivo, mouse; settings: relative to saline
Experimental: The short antisense compounds shown in Table 88 were tested for their effects in vivo. […] A 5-10-5 MOE gapmer was used for a control treatment. Mice were sacrificed approximately 48 hours following the final dose. Liver tissue was collected for RNA isolation, and blood was collected for serum chemistry analyses. ApoB mRNA levels were measured by real-time PCR as described herein. ApoB mRNA levels were normalized to RNA levels as determined by RIBOGREEN, and are presented in Table 89 as percent inhibition relative to ApoB mRNA levels in saline-treated control animals.

ApoB mRNA [2] = test: ApoB mRNA in liver of Balb/c mice, single i.p. dose 8, 4, 2 or 1 μmol/kg, with ED50 (Example 28, Table 92); format: in vivo, mouse; settings: Balb/c mice, relative to saline
Experimental: The short antisense compounds tested were ISIS 387462 and ISIS 398296. Each dose group consisted of four animals. A 5-10-5 MOE gapmer was used for a control treatment. Mice were sacrificed approximately 48 hours following the final dose. Liver tissue was collected for RNA isolation, and blood was collected for serum chemistry analyses. ApoB mRNA levels were measured by real-time PCR as described herein. ApoB mRNA levels were normalized to RNA levels as determined by RIBOGREEN, and are presented in Table 92 as percent inhibition relative to ApoB mRNA levels in saline-treated control animals.
At the 8 umol/kg dose, ApoB inhibition by the short antisense compounds was greater than observed with a 5-10-5 MOE gapmer at an equivalent dose. […] Triglycerides were reduced at the highest dose.

PTP1B mRNA [3] = test: Antisense inhibition of human PTP1B in HepG2 cells at 25 nM (Example 24, Table 85); format: cell-based
Experimental: Short antisense compounds targeted to a PTP1B nucleic acid were tested for their effects on PTP1B mRNA in vitro. Cultured HepG2 cells at a density of 10000 cells per well in a 96-well plate were treated with 25 nM of antisense oligonucleotide. After the treatment period, RNA was isolated from the cells and PTP1B mRNA levels were measured by quantitative real-time PCR, as described herein. PTP1B mRNA levels were adjusted according to total RNA content as measured by RIBOGREEN®. Results are presented as percent inhibition (% Ihib) of PTP1B, relative to untreated control cells.

PTP1B mRNA [4] = test: Dose response for human PTP1B in HuVEC cells, Primer Probe Set 198 (Example 25, Table 86); format: cell-based
Experimental: (§1) Human vascular endothelial (HuVEC) cells were plated at a density of 5000 cells per well and treated as described herein with nM concentrations of short antisense compound as indicated in Table 86. After the treatment period, RNA was isolated from the cells and PTP1B mRNA levels were measured by quantitative real-time PCR, as described herein. PTP1B mRNA levels were adjusted according to total RNA content as measured by RIBOGREEN®. Two different human PTP1B primer probe sets were used to measure mRNA levels. Results with Primer Probe Set (PPS) 198 are shown in Table 86, and results with Primer Probe Set (PPS) 3000 are shown in Table 87. Results are presented as percent inhibition of PTP1B mRNA expression relative to untreated control cells.

PTP1B mRNA [5] = test: Antisense inhibition of human PTP1B in HuVEC cells at 3 nM (Example 23, Table 84); format: cell-based
Experimental: Short antisense compounds targeted to a PTP1B nucleic acid were tested for their effects on PTP1B mRNA in vitro. Cultured HuVEC cells at a density of 5000 cells per well in a 96-well plate were treated as described herein with 3 nM of short antisense compound. After the treatment period, RNA was isolated from the cells and PTP1B mRNA levels were measured by quantitative real-time PCR, as described herein. PTP1B mRNA levels were adjusted according to total RNA content as measured by RIBOGREEN®. Results are presented as percent inhibition of PTP1B (% Inhib), relative to untreated control cells.

PTP1B mRNA [6] = test: Dose response for human PTP1B in HuVEC cells, Primer Probe Set 3000 (Example 25, Table 87); format: cell-based
Experimental: as §1

Substance: 398296 (antisense kG*kG*dT*dA*dC*dA*dT*dG*dG*dA*dA*dG*kT*kC) [compound 398296]
- % Inhib (ApoB mRNA in liver) (ApoB mRNA [1]; 0.1 umol/kg i.p. twice per week for three weeks): 17%
- % Inhib (ApoB mRNA in liver) (ApoB mRNA [1]; 0.32 umol/kg i.p. twice per week for three weeks): 35%
- % Inhib (ApoB mRNA in liver) (ApoB mRNA [1]; 1 umol/kg i.p. twice per week for three weeks): 80%
- % Inhib (ApoB mRNA in liver) (ApoB mRNA [1]; 3.2 umol/kg i.p. twice per week for three weeks): 98%
- % Inhib (ApoB mRNA in liver) (ApoB mRNA [2]; single i.p. dose 1 umol/kg): 19%
- % Inhib (ApoB mRNA in liver) (ApoB mRNA [2]; single i.p. dose 2 umol/kg): 54%
- % Inhib (ApoB mRNA in liver) (ApoB mRNA [2]; single i.p. dose 4 umol/kg): 81%
- % Inhib (ApoB mRNA in liver) (ApoB mRNA [2]; single i.p. dose 8 umol/kg): 97%

Substance: 399301 (antisense eG*eT*dG*dT*dG*d[5mC]*dA*d[5mC]*dA*d[5mC]*dA*dG*e[5mC]*eT) [compound 399301]
- % Inhib (PTP1B mRNA) (PTP1B mRNA [3]): 43%
- % Inhibition of PTP1B mRNA (PTP1B mRNA [4]; PPS 198, 1.11 nM): 8%
- % Inhibition of PTP1B mRNA (PTP1B mRNA [4]; PPS 198, 3.33 nM): 63%
- % Inhibition of PTP1B mRNA (PTP1B mRNA [4]; PPS 198, 10.0 nM): 91%
- % Inhibition of PTP1B mRNA (PTP1B mRNA [4]; PPS 198, 30.0 nM): 97%
- % Inhib (PTP1B mRNA) (PTP1B mRNA [5]): 55%
- % Inhibition of PTP1B mRNA (PTP1B mRNA [6]; PPS 3000, 1.11 nM): 16%
- % Inhibition of PTP1B mRNA (PTP1B mRNA [6]; PPS 3000, 3.33 nM): 65%
- % Inhibition of PTP1B mRNA (PTP1B mRNA [6]; PPS 3000, 10.0 nM): 93%
- % Inhibition of PTP1B mRNA (PTP1B mRNA [6]; PPS 3000, 30.0 nM): 99%

Substance: 404137 (antisense e[5mC]*eA*dG*dT*dG*dT*dG*d[5mC]*dA*d[5mC]*dA*d[5mC]*eA*eG) [compound 404137]
- % Inhib (PTP1B mRNA) (PTP1B mRNA [3]): 71%
- % Inhib (PTP1B mRNA) (PTP1B mRNA [5]): 76%

Substance: 404138 (antisense e[5mC]*eT*d[5mC]*dA*dG*dT*dG*dT*dG*d[5mC]*dA*d[5mC]*eA*e[5mC]) [compound 404138]
- % Inhib (PTP1B mRNA) (PTP1B mRNA [3]): 86%
- % Inhib (PTP1B mRNA) (PTP1B mRNA [5]): 76%

Substance: 404139 (antisense eG*eT*dG*d[5mC]*dA*d[5mC]*dA*d[5mC]*dA*dG*d[5mC]*dT*eG*eA) [compound 404139]
- % Inhib (PTP1B mRNA) (PTP1B mRNA [3]): 45%
- % Inhib (PTP1B mRNA) (PTP1B mRNA [5]): 80%

Substance: 404140 (antisense eG*e[5mC]*dA*d[5mC]*dA*d[5mC]*dA*dG*d[5mC]*dT*dG*dA*eG*eG) [compound 404140]
- % Inhib (PTP1B mRNA) (PTP1B mRNA [3]): 93%
- % Inhib (PTP1B mRNA) (PTP1B mRNA [5]): 73%
